Patent publication US12478081B2, “Application of aspartic acid derivative in preparing animal feed additive” (ANIPHA TECHNOLOGIES PTY LTD, priority 2018, dated 2025)
Marks after values point to notes of the source that are not given here.

Legend:
[1] = Thermal stability of compounds at 60° C. (HPLC content of raw material and 2% premix); format: physicochemical; conditions: for Detection result of the content of test sample (%) Day 5: Day 5, relative to Day 0; for Detection result of the content of test sample (%) Day 10: Day 10, relative to Day 0
Protocol: The variations of the contents of the main ingredient of the aspartic acid derivative raw material and the main ingredient of a premix containing 2% mass fraction of the aspartic acid derivative (hereinafter referred to as 2% premix) over time were investigated under the conditions of stability test at 60° C.
Experimental apparatus: drug stability incubator, Waters high-performance liquid chromatograph (HPLC), etc.
Test samples: N-carbamoyl-DL-aspartic acid (compound 1), diethyl N-carbamoyl-DL-aspartate (compound 2), Sodium N-carbamoyl-DL-aspartate (compound 3), Calcium N-carbamoyl-DL-aspartate (compound 4), Zinc N-carbamoyl-DL-aspartate (compound 5), Copper N-carbamoyl-DL-aspartate (compound 6), Iron N-carbamoyl-DL-aspartate (compound 7), N-glycyl-DL-aspartic acid (compound 8), N-(4-aminobutyryl)-DL-aspartic acid (compound 9), N-(10-aminodecanoyl)-DL-aspartic acid (compound 10), N-(14-aminomyristoyl)-DL-aspartic acid (compound 11).
Preparation of standard solution: 50 mg of the test sample raw material was ultrasonically dissolved in 50 mL of water to obtain a working reserve solution. An appropriate amount of the working reserve solution was taken and diluted with water respectively to concentrations of 125 ppm, 250 ppm, 500 ppm, and 1000 ppm for HPLC testing. It was checked whether the sample concentrations are in a linear relationship with the peak area response values in HPLC, and a standard curve was established.
Preparation of test solution: An appropriate amount of the test sample raw material and an appropriate amount of a premix containing 2% mass fraction of the test sample (hereinafter referred to as 2% premix) were separately ultrasonically dissolved in an appropriate amount of water to form a 1000 ppm solution, which is filtered through a 0.22 µm filter membrane and then analyzed by HPLC.
HPLC analysis conditions: chromatographic column: Waters C18 column (250 mm×4.6 mm, 5 μm); mobile phase: 0.05% phosphoric acid:methanol=95:5 (v:v) (raw material); 0.05% phosphoric acid: methanol (gradient elution); methanol: 5%→40% (0-15 min) curve 6, 40%→5% (15-16 min) curve 1, 5% (16-23 min) curve 1, (premix, feed); detection wavelength: 210 nm; column temperature: 25° C.; sample size: 20 μL; flow rate: 1 mL/min.
Test method: The test sample raw material and its 2% premix were placed in a culture plate, spread into a thin layer of <5 mm, and placed at 60° C. Samples were taken on the day 5 and ? day 10 for HPLC detection. Each sample was sampled three times in parallel.

laying hens = test: Breeding test: production performance of laying hens; format: in vivo, Jingbai laying hens; conditions: 158 days; for ADFI / EPR (%) / EW (g): 500 ppm in basal daily ration; for feed-to-egg ratio: Table 4, 500 ppm in basal daily ration
Text: The test adopted a single-factor random design. 420 147-day-old Jingbai laying hens with similar body weights were selected and randomly divided into 7 treatment groups, with 3 replications per group and 20 Jingbai laying hens (half of male and female) per replication. The poultry houses and utensils were sterilized before the test. During the test period, the Jingbai laying hens were cage cultured in the same laying poultry house under the same feeding and management conditions. The basal daily ration was mainly corn-soybean meal, and no other antioxidant ingredients or growth promoters were added additionally during the entire feeding process. The test groups include a control group and test groups I-VII. The basal daily ration was fed for the control group I only, and 500 ppm of different aspartic acid derivatives were added into the basal daily ration for the test groups II-VII, as shown in Table 3. The pre-feeding period was 10 days, and the test period was 158 days. The test laying hens were free to drink water and eat feed, and were fed twice a day.
Parameter statistics: During the test period, taking each repetition as a unit, the total egg number, the egg production, and the feed intake were recorded every day, and the egg production rate (EPR), the average daily feed intake (ADFI, g/d), the egg weight (EW, g) and the feed-to-egg ratio (FER) of the laying hens during the entire test were calculated.
Calculation formulas are as follows: […]
The test data was statistically analyzed using SPSS18 software. First, a one-way analysis of variance (ANOVA) was performed on the data. If the difference between treatments is significant, Duncan's method was used for multiple comparisons, and the significance level was 0.05.

grass carps = test: Use of aspartic acid derivatives in feeds for fish (grass carp breeding test); format: in vivo; conditions: for Average final weight (g) / FCR / Weight gain (%): grass carps, 3000 ppm in feed, 8 weeks; for effect on weight gain of grass carps (in words): 3000 ppm, compared with the control group
Protocol: Test fish: The test fishes used were healthy and lively grass carp fingerlings with uniform size, which were fed in large cages for 4 weeks before being used for formal breeding test. The experimental system was a small floating cage (specification: 1.1×1.1×1.1 m^3), each small floating cage being equipped with an aeration head, providing aeration 24 h a day. Both the small floating cage and the temporary cage were placed in a 3500 m^2 pond of the test field, the depth of the pond was about 1.5 m, and the water of the pond was fully aerated in the bottom of the pond. 560 grass carps that were hungry for 1 day were randomly divided into 7 groups, with 4 replications per group and 20 grass carps per replication. By taking each replication as a unit, all of the grass carps were weighed, and then placed in 28 cages and fed with test feeds containing different test samples at the same content level.
Test feeds: The feeds for the test were self-prepared based on the formulations in Table 6, and different test samples were added at the same content level for different test groups according to Table 7, respectively.
The feed raw materials used were ground by ultrafine grinding and fed into a puffing machine produced by Jiangsu Muyang Group Co., Ltd. to make 3 mm floating puffed feed, where the mold clearing temperature was 130° C., 3% soybean oil was sprayed using an oil spraying equipment, and the obtained feed was sealed and stored in a cool place for later use.
Test management: The test adopted controlled artificial feeding, and the feeding amount was adjusted once a week. The feeding levels for all the groups (based on the initial fish weight) were exactly the same, and the grass carps were fed twice a day (7:30 and 15:00). The total feeding amount was 580 g/replication test group. The test period was 8 weeks. During the test, the water quality was regularly monitored. The water temperature during the whole breeding process was 26.88±3.08° C., DO>5.0 mg O L^−1, pH 7.8, ammonia nitrogen<0.50 mg N L^−1, nitrite nitrogen<0.05 mg N L^−1.
Parameter statistics: During the test, after the provisioning of feeds has been stopped for 1 day, fishes in each cage were weighed as a whole, and the weight gain (WG, %) and the feed conversion ratio (FCR) were calculated. Calculation formulas are as follows:
[formula] [formula] (3) Test Results

Row | Compound | Detection result of the content of test sample (%) Day 5 ([1]; 2% premix) | Detection result of the content of test sample (%) Day 10 ([1]; 2% premix) | Detection result of the content of test sample (%) Day 5 ([1]; Raw material) | Detection result of the content of test sample (%) Day 10 ([1]; Raw material) | ADFI (laying hens) | EPR (%) (laying hens) | EW (g) (laying hens) | feed-to-egg ratio (laying hens) | Average final weight (g) (grass carps) | FCR (grass carps) | Weight gain (%) (grass carps) | effect on weight gain of grass carps (in words) (grass carps)
1 | NCCCCCCCCCCCCCC(=O)NC(CC(=O)O)C(=O)O (racemic) [Compound 11, N-(14-aminomyristoyl)-DL-aspartic acid] | 98.22% | 97.80% | 97.61% | 95.93% | 115.13 ± 2.91 g/day | 85.24 ± 0.17^c % | 55.45 ± 0.35^b g | 2.08 ± 0.04 | 769.2 ± 4.5^ab g | 1.671 ± 0.008^b | 82.32 ± 1.24% | 
2 | NCCCCCCCCCC(=O)NC(CC(=O)O)C(=O)O (racemic) [Compound 10, N-(10-aminodecanoyl)-DL-aspartic acid] | 98.55% | 97.81% | 99.00% | 96.73% | 119.31 ± 1.84 g/day | 85.24 ± 0.18^c % | 57.45 ± 0.47^c g | 2.08 ± 0.03 | 781.0 ± 5.1^b g | 1.653 ± 0.009^b | 81.58 ± 0.96% | 
3 | NCCCC(=O)NC(CC(=O)O)C(=O)O (racemic) [Compound 9, N-(4-aminobutyryl)-DL-aspartic acid] | 99.41% | 97.68% | 98.46% | 98.09% | 113.64 ± 2.43 g/day | 86.09 ± 0.18^b % | 55.44 ± 0.37^b g | 2.05 ± 0.04 | 781.8 ± 4.4^b g | 1.662 ± 0.008^b | 80.76 ± 1.52% | 
4 | NC(=O)NC(CC(=O)O)C(=O)O (racemic) [Compound 1, N-carbamoyl-DL-aspartic acid] | 99.66% | 99.70% | 99.79% | 99.28% | 113.44 ± 1.55 g/day | 85.80 ± 0.14^b % | 55.49 ± 0.38^b g | 2.04 ± 0.02 | 774.5 ± 4.8^b g | 1.650 ± 0.011^b | 83.19 ± 1.41^b % | 
5 | CCOC(=O)CC(NC(N)=O)C(=O)OCC (racemic) [Compound 2, diethyl N-carbamoyl-DL-aspartate] | 98.81% | 98.09% | 97.32% | 96.97% | 115.19 ± 3.14 g/day | 86.28 ± 0.20^b % | 55.94 ± 0.37^b g | 2.06 ± 0.04 | 772.0 ± 6.3^b g | 1.650 ± 0.008^b | 83.74 ± 1.53^b % | significant improvement effect
6 | NCC(=O)NC(CC(=O)O)C(=O)O (racemic) [Compound 8, N-glycyl-DL-aspartic acid] | 98.57% | 97.32% | 99.78% | 98.02% | 113.01 ± 2.31 g/day | 84.86 ± 0.24^c % | 54.98 ± 0.39^a g | 2.06 ± 0.03 | 778.2 ± 4.3^b g | 1.671 ± 0.008^b | 80.62 ± 1.46% | significant improvement effect
